# Read-outs that look alike come from different tables or passages of the source.
# What was measured:
# Format in all cases: cell-based
# [1] = system: Botrytis cinerea (sensitive, wild-type); assay: Activity against Botrytis cinerea in the microtiter test, wild type; details: turbidity at 620 nm after 7 days; for IC50: 168 h, read-out: Absolute IC50, wild type
# Protocol: (§1) The active substances were formulated separately as a stock solution in dimethyl sulfoxide (DMSO) at a concentration of 10 000 ppm.
# (§2) Fungal strains used: • a) Botrytis cinerea (sensitive, wild-type) • b) Various mutants of Botrytis cinerea
# (§3) The spores of Botrytis cinerea were harvested with a cotton swab from an Oatmeal agar plate (50 g/l Oatmealagar (Sigma, Art.O-3506), 15 g/l agar, (Difco) and this is dipped in 3 ml of double concentrated DOB-medium (3.4 g/l YNB (Becton Dickinson), 10 g/l Ammoniumsulfat, 40 g/l Glucose, adjusted to pH 7) and the spore suspension is adjusted to a spore density of 3.2×10^4 spores/ml. The compound solutions were diluted from stock solution in (dimethylsulfoxide) DMSO in several steps with sterile deionized water before use. High test concentrations were 50 mg/L (ppm) or 31 mg/L (ppm). Compound solutions were transferred into empty microplates and filled up with an equal amount of spore suspension.
# (§4) The antifungal activity was determined by measuring the turbidity of a culture in 96-well microplates in the presence of test compounds after 7 days incubation at 620 nm. A blank value for each concentration (growth media+compound, without spores) are subtracted from the spore suspension. The relative antifungal activity was calculated by comparing the effect of the test compounds with the effect of a DMSO control The results are shown in Table IV (for compounds of general formula I.A), VI (for compounds of general formula I.B), and VIII (for compounds of general formula I.C).
# (§5) The absolute IC50-values (concentration of test compound resulting in 50% inhibition of fungal growth) were calculated from the resulting dose-response for each compound and strain.
# [2] = system: Botrytis cinerea mutant H108P; assay: Activity against Botrytis cinerea in the microtiter test, mutant H108P; details: for IC50: Botrytis cinerea, MUTANTH108P, 168 h, read-out: Absolute IC50, H108P, Botrytis cinerea mutant H108P
# Description: as §1
# (§6) Spontaneous mutants were selected by plating out B. cinerea spores (in the range of 10^7-10^8) on DOB agar plates (3.4 g/l YNB (Becton Dickinson), 10 g/l Ammoniumsulfat, 40 g/l Glucose, 20 g/l Agar), amended with different lethal concentrations of active ingredient. After 7-14 days growing colonies were transferred to DOB agar plates, amended with the same lethal concentrations of active ingredient and then further propagated on Oatmeal agar medium (50 g/l Oatmeal agar (Sigma), 15 g/l Agar (Difco) for sensitivity testing.
# as §2, §3, §4
# (§7) A compound showing an IC50 (MUT) above the IC50 (WT) and showing an IC50 (MUT) to IC50 (WT) ratio being in a range above 100 is considered unsuitable (“I”) as DHODH inhibitor.
# as §5
# [3] = system: Botrytis cinerea mutant G111E; assay: Activity against Botrytis cinerea in the microtiter test, mutant G111E; details: for IC50: Botrytis cinerea, MUTANTG111E, 168 h, read-out: Absolute IC50, G111E, Botrytis cinerea mutant G111E
# Description: as §1, §6, §2, §3, §4, §7, §5
# [4] = system: Botrytis cinerea mutant G111V; assay: Activity against Botrytis cinerea in the microtiter test, mutant G111V; details: for IC50: Botrytis cinerea, MUTANTG111V, 168 h, read-out: Absolute IC50, G111V, Botrytis cinerea mutant G111V
# Description: as §1, §6, §2, §3, §4, §7, §5
# [5] = system: Botrytis cinerea mutant V195F; assay: Activity against Botrytis cinerea in the microtiter test, mutant V195F; details: for IC50: Botrytis cinerea, MUTANTV195F, 168 h, read-out: Absolute IC50, V195F, Botrytis cinerea mutant V195F
# Description: as §1, §6, §2, §3, §4, §7, §5
# [6] = system: Botrytis cinerea mutant Y208H; assay: Activity against Botrytis cinerea in the microtiter test, mutant Y208H; details: for IC50: Botrytis cinerea, MUTANTY208H, 168 h, read-out: Absolute IC50, Y208H, Botrytis cinerea mutant Y208H
# Description: as §1, §6, §2, §3, §4, §7, §5
# [7] = system: Sclerotinia sclerotiorum (sensitive, wild-type); assay: Activity against Sclerotinia sclerotiorum in tissue culture plate assay with mycelial plugs, wild type; details: 168 h, % growth after 7 days at 18° C., read-out: Absolute IC50, wild type
# Protocol: Fungal strains used: • a) Sclerotinia sclerotiorum (sensitive, wild-type) • b) Mutants of Sclerotinia sclerotiorum
# Pure cultures are grown on DOB-agar medium, (3.4 g/l YNB (Becton Dickinson), 10 g/l Ammoniumsulfat, 40 g/l Glucose) for 5-7 days at 18° C. Mycelial plugs (6 mm diame-ter) taken from the margin of the colonies are used as inoculum for the sensitivity test. 500 μl fungicide-amended DOB medium (3.4 g/l YNB (Becton Dickinson), 10 g/l Ammoniumsulfat, 40 g/l Glucose, adjusted to pH 7) are added to each well of 24-well tissue culture plates. Each well is then inoculated with a mycelial plug, with the myce-lium surface up. Two replicate wells are used for each isolate and fungicide concentration. Growth is assed after 7 days incubation at 18° C. in the dark by estimating % growth in the well. IC50-values (concentration of test compound resulting in 50% inhibition of fungal growth) were calculated from the resulting dose-response for each compound and strain.
# [8] = turbidity at 620 nm after 7 days
molecule,measurement,setting,value
Cc1cc(C2=NC(C)(C)C(C)(C)Oc3ccccc32)cnc1C(F)F [compound 49],IC50,[1],0.01 µg/mL
same,IC50,[2]; [8],0.32 µg/mL
same,IC50,[3]; [8],2.35 µg/mL
same,IC50,[4]; [8],0.7 µg/mL
same,IC50,[5]; [8],0.01 µg/mL
same,IC50,[6]; [8],0.97 µg/mL
Cc1cc(C2=NC(C)(C)Oc3c2cccc3C(C)(C)C)cnc1C [Ex-15],"Relative antifungal activity expressed as IC50, G111V",[4]; {},AA AA AA
same,"Relative antifungal activity expressed as IC50, V195F",[5]; {},AA AA AA
CCN1c2c(F)cccc2C(c2cnc(C(F)F)c(C)c2)=NC1(C)C [compound 45],IC50,[1],0.01 µg/mL
same,IC50,[2]; [8],0.4 µg/mL
same,IC50,[3]; [8],0.57 µg/mL
same,IC50,[4]; [8],0.96 µg/mL
same,IC50,[5]; [8],0.02 µg/mL
same,IC50,[6]; [8],0.27 µg/mL
Cc1cc(C2=NCC(C)(C)Oc3ccccc32)cnc1C [compound 47],IC50,[1]; Botrytis cinerea,0.04 µg/mL
same,IC50,[2]; [8],0.83 µg/mL
same,IC50,[3]; [8],2.47 µg/mL
same,IC50,[4]; [8],0.55 µg/mL
same,IC50,[5]; [8],0.02 µg/mL
same,IC50,[6]; [8],1.9 µg/mL
CC(C)(C)C1(C)N=C(c2cnc3c(F)cccc3c2)c2ccccc2O1 (stereo not shown) [drawing 166],IC50,[7],0.137 µg/mL
"4-[6-(difluoromethyl)-5-methyl-3-pyridyl]-8-fluoro-2,2-dimethyl-1H-quinazoline [compound 44]","Absolute IC50, wild type",[1],0.01 ppm
same,"Absolute IC50, H108P","[2]; Botrytis cinerea mutant H108P, turbidity at 620 nm after 7 days",0.50 ppm
same,"Absolute IC50, G111E","[3]; Botrytis cinerea mutant G111E, turbidity at 620 nm after 7 days",0.08 ppm
same,"Absolute IC50, G111V","[4]; Botrytis cinerea mutant G111V, turbidity at 620 nm after 7 days",0.73 ppm
same,"Absolute IC50, V195F","[5]; Botrytis cinerea mutant V195F, turbidity at 620 nm after 7 days",0.03 ppm
same,"Absolute IC50, Y208H","[6]; Botrytis cinerea mutant Y208H, turbidity at 620 nm after 7 days",1.64 ppm
COc1ccc2c(c1)OC(C)(C)N=C2c1cnc2c(F)cccc2c1 [drawing 170],IC50,[7],0.06 µg/mL
Cc1cc(C2=NC3(CCC3)Oc3c(F)cccc32)cnc1C [Ex-29],IC50,[1]; Botrytis cinerea,0.02 µg/mL
same,IC50,[2]; [8],0.02 µg/mL
same,IC50,[3]; [8],2.34 µg/mL
same,IC50,[4]; [8],0.04 µg/mL
same,IC50,[5]; [8],0.02 µg/mL
same,IC50,[6]; [8],0.93 µg/mL
Cc1cc(C2=NC3(COC3)Oc3ccccc32)cnc1C [Ex-26],"Relative antifungal activity expressed as IC50, G111E",[3]; {},AA AA AA AA
same,"Relative antifungal activity expressed as IC50, G111V",[4]; {},AA AA AA AA
same,"Relative antifungal activity expressed as IC50, V195F",[5]; {},AA AA AA AA
Cc1cc(C2=NC3(CCC3)Oc3ccccc32)cnc1C [Ex-32],IC50,[1]; Botrytis cinerea,0.12 µg/mL
same,"Absolute IC50, H108P",[2]; {},0.07 ppm
same,"Absolute IC50, G111E",[3]; {},2.34 ppm
same,"Absolute IC50, G111V",[4]; {},2.85 ppm
same,"Absolute IC50, V195F",[5]; {},0.13 ppm
same,IC50,[6]; [8],1.23 µg/mL
Cc1cc(C2=NC3(CCC3)Oc3c2cccc3C(C)(C)C)cnc1C [Ex-14],"Relative antifungal activity expressed as IC50, G111E",[3]; {},AA AA AA AA AA
same,"Relative antifungal activity expressed as IC50, G111V",[4]; {},AA AA AA AA AA
same,"Relative antifungal activity expressed as IC50, V195F",[5]; {},AA AA AA AA AA
same,"Relative antifungal activity expressed as IC50, Y208H",[6]; {},AA AA AA AA AA
"Cc1cc(C2=NC3(CCC3)Oc3ccccc32)cnc1C(F)F [Ex-25, 4-[6-(difluoromethyl)-5-methyl-3-pyridyl]spiro[1,3-benzoxazine-2,1′-cyclobutane]]",IC50,[1],0.05 µg/mL
same,IC50,[2]; [8],0.02 µg/mL
same,IC50,[4]; [8],0.03 µg/mL
same,IC50,[5]; [8],0.08 µg/mL
same,IC50,[6]; [8],0.28 µg/mL
Fc1cccc2c1OC1(CCC1)N=C2c1cnc2ccccc2c1 [reference compound],IC50,[1],0.03 µg/mL
same,IC50,[2]; [8],0.11 µg/mL
same,IC50,[3]; [8],9.48 µg/mL
same,IC50,[4]; [8],0.14 µg/mL
same,IC50,[5]; [8],24.1 µg/mL
same,IC50,[6]; [8],1.59 µg/mL
CC1(C)N=C(c2cnc3c(F)cccc3c2)c2cccc(F)c2N1 [reference compound],IC50,[1]; Botrytis cinerea,0.005 µg/mL
same,IC50,[5]; [8],4.42 µg/mL
CCC1(CC)N=C(c2cnc(C)c(C)c2)c2ccccc2O1 [Ex 7],IC50,[7],0.23 µg/mL
Cc1ccc(S(=O)(=O)N2c3ccccc3C(c3cnc(C)c(C)c3)=NC2(C)C)cc1 [compound 42],"Relative antifungal activity expressed as IC50, G111E",[3]; {},AA AA AA AA
same,"Relative antifungal activity expressed as IC50, G111V",[4]; {},AA AA AA AA
same,"Relative antifungal activity expressed as IC50, V195F",[5]; {},AA AA AA AA
Cc1cc(C2=NC(C(C)(C)C)Oc3ccccc32)cnc1C (stereo not shown) [Ex-18],"Relative antifungal activity expressed as IC50, G111E",[3]; {},AA AA AA AA
same,"Relative antifungal activity expressed as IC50, G111V",[4]; {},AA AA AA AA
same,"Relative antifungal activity expressed as IC50, V195F",[5]; {},AA AA AA AA

# Source: patent US20260150841A1, “PYRIDINE COMPOUNDS FOR COMBATTING DIHYDROOROTATE-DEHYDROGENASE INHIBITOR-RESISTANT PHYTOPATHOGENIC FUNGI” (priority 2022, published 2026)
